By Kd is commonly meant the constant that tells how readily two partners part at equilibrium.

Active and inactive are the calls of the source. How the calls were made is not given here. Some results are limits rather than exact numbers.

Chain of Peptidyl-prolyl cis-trans isomerase FKBP1A (Homo sapiens) (P62942 whole entry, looked up): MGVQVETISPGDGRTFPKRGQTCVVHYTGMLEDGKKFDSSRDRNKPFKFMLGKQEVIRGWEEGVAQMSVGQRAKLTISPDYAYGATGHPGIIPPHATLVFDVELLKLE

This experiment has as its target Peptidyl-prolyl cis-trans isomerase FKBP1A (Homo sapiens) (UniProt P62942). In words: FKBP12 binders, biophysical, NMR detection (AID 608). The settings on record: NMR binding, purified FKBP12.
Take `COc1cc(OC)c2c(c1)O[C@H](c1ccc(OC)c(OC)c1)[C@@H](O)C2`: the Kd was > 4 mM (inactive).
Under `CC(C)[C@@H]1CC[C@@H](C)C[C@H]1OC(=O)c1ccccc1` stands > 4 mM (inactive).
To `CNC(=O)Nc1ccc(C(=O)NC)cc1` belongs > 4 mM (inactive); to `NC(=O)Cn1cnc2c(cnn2-c2ccccc2)c1=O`, > 4 mM (inactive).
Under `NNC(=O)c1ccccc1-n1cccc1` stands > 4 mM (inactive).
Consider `N#C/C(=C\c1ccc[nH]1)S(=O)(=O)c1ccccc1`, for which the Kd is > 4 mM (inactive).
To `C=CCNC(=O)c1nn2cccnc2c1Cl` belongs > 4 mM (inactive); to `CN(C)C1CCS(=O)(=O)C1` (configuration not stated), > 4 mM (inactive); to `Nc1ccc(NS(=O)(=O)c2ccc(N)cc2)cc1`, > 4 mM (inactive).
To `O=C(O)C1CCCCN1Cc1ccccc1` (configuration not stated) belongs > 4 mM (inactive); to `O=CN1CCN(C(=O)c2ccccc2F)CC1`, > 4 mM (inactive).
Under `O=C(Nc1ccon1)c1ccc(Br)o1` stands > 4 mM (inactive); under `O=C(O)/C=C(\CC(=O)O)C(=O)O`, > 4 mM (inactive); under `Cc1ccc(F)cc1NC(=O)c1ccc2c(c1)OCO2`, > 4 mM (inactive).
For the molecule `CNC(=O)c1ccccc1-c1ccccc1`, the Kd is > 4 mM (inactive).
To `COC(=O)c1cc2cc(N)ccc2s1` belongs > 4 mM (inactive); to `CC(=O)O[C@@H]1CC2C(C)(C)C(=O)[C@@H]3O[C@@H]3[C@]2(C)C2CC[C@]3(C)C(=CC(=O)O[C@H]3c3ccoc3)[C@@]21C` (some centres not stated), > 4 mM (inactive); to `CC(=O)N=c1cccc(NC(C)=O)n1O`, > 4 mM (inactive).
Under `CNS(=O)(=O)c1cc(OC)ccc1OC` stands > 4 mM (inactive); under `O=C1NCC(=O)N2CCc3ccccc3C12` (configuration not stated), > 4 mM (inactive).
Under `O=C(O)CN1CCNCC1` stands > 4 mM (inactive); under `C=CC(C1=CC(=O)C(OC)=CC1=O)c1ccccc1` (configuration not stated), > 4 mM (inactive); under `CSc1nnc(CN2CCSCC2)n1C`, > 4 mM (inactive).
On to `O=C(O)c1cccc2c1OCC2`, for which the Kd is > 4 mM (inactive).
Under `Cn1nc(C(=O)NC2CCCCC2)c2ccccc2c1=O` stands > 4 mM (inactive).
Under `CC(=O)Nc1nnc(-c2ccccc2S(C)(=O)=O)o1` stands > 4 mM (inactive).
Take `NCCCCN`: the Kd is > 4 mM (inactive).
`O=C(O)C(Cc1cnc[nH]1)N1C(=O)c2ccccc2C1=O` (configuration not stated): the Kd was > 4 mM (inactive).
Under `CCn1cnc(C(=O)NC)c1C(=O)NC` stands > 4 mM (inactive); under `S=c1[nH]cnc2sccc12`, > 4 mM (inactive); under `O=c1[nH]cc(NC(=S)N2CCOCC2)c(=O)[nH]1`, > 4 mM (inactive).
On to `O=C1NC(=O)C(Cc2cccs2)C(=O)N1`, for which the Kd is > 4 mM (inactive).
Under `CC(C)c1ccccc1OCC(=O)N1CCOCC1` stands > 4 mM (inactive).
Under `CSc1n[nH]c(NCc2ccccc2)n1` stands > 4 mM (inactive).
Under `c1cc(CNc2ccc3c(c2)OCCO3)ccn1` stands > 4 mM (inactive).
Regarding `CN(C)C(=O)Nc1ccc(F)cc1F`, the Kd is > 4 mM (inactive).
For the molecule `O=C1CCC(=O)N1CNc1ccccc1`, the Kd was > 4 mM (inactive).
Regarding `O=C(COc1ccc(Cl)cc1Cl)N1CCOCC1`, the Kd result is “inactive”.
To `O=C1NC(=O)C(c2ccccc2)C(=O)N1` belongs > 4 mM (inactive); to `COc1ccc2c(c1OC)C(=O)N(c1ncn[nH]1)C2`, > 4 mM (inactive).
To `O=C(O)c1ccc2snnc2c1` belongs > 4 mM (inactive).
Under `CC1CCN(C(=S)c2ccccc2O)CC1` stands > 4 mM (inactive).
In the case of `Cc1cc(CN2C(=O)c3ccccc3C2=O)on1`, the Kd was > 4 mM (inactive).
With `O=C1C2C3C=CC(C3)C2C(=O)N1CCCO` (configuration not stated), the Kd was > 4 mM (inactive).
To `Nc1ccc2nsnc2c1` belongs > 4 mM (inactive); to `CC(CCC(=O)O)[C@H]1CCC2C3CC[C@@H]4C[C@H](O)CC[C@]4(C)C3CC[C@@]21C` (some centres not stated), > 4 mM (inactive); to `O=C1CSC(c2ccccc2)N1` (configuration not stated), > 4 mM (inactive).
Under `O=C(Cn1c(-c2cscn2)nc2ccccc21)Nc1ccc(Cl)cc1` stands > 4 mM (inactive); under `O=C(c1ccc(F)cc1)C1CCNCC1`, > 4 mM (inactive); under `Cc1cccc(NC(=O)Nc2cc(C)on2)c1`, > 4 mM (inactive).
For `Cc1cc(/C=N/O)nc(=O)[nH]1`, the Kd was > 4 mM (inactive).
To `Cc1cc(NC(=O)c2cnn3cccnc23)no1` belongs > 4 mM (inactive); to `Cc1cc2ncc(C(=O)Nc3ccccc3)c(C)n2n1`, “inactive”; to `Cc1nc(-c2ccc(C(=O)N3CCOCC3)cc2)cs1`, > 4 mM (inactive).
Under `S=C(Nc1ccccc1)Nc1nncs1` stands > 4 mM (inactive).
To `Cc1noc(C)c1C(=O)NCc1cccs1` belongs > 4 mM (inactive).
For the molecule `O=C(Nc1ccon1)c1ccc2c(c1)OCO2`, the Kd is > 4 mM (inactive).
To `C=C1C(=O)OC2CC1C(OC(C)=O)C/C(C)=C/CC/C(C)=C/CC[C@]2(C)O` (some centres not stated) belongs > 4 mM (inactive); to `C=C[C@@](C)(O)CCC1C(=C)C[C@H](OC(C)=O)C2C(C)(C)CCCC12C` (some centres not stated), > 4 mM (inactive); to `Oc1ccccc1N1CCOCC1`, > 4 mM (inactive).
In the case of `CN(C)c1nc(N2CCOCC2)c2cnn(C)c2n1`, the Kd is > 4 mM (inactive).
To `COC(=O)C[C@H]1C(C)(C)C(OC(C)=O)[C@]2(O)C=C3C(CC[C@]4(C)C3CC(=O)O[C@H]4c3ccoc3)C1(C)C2=O` (some centres not stated) belongs > 4 mM (inactive).
To `COC(=O)c1ccc(NC(=O)CC2NCCNC2=O)cc1` (configuration not stated) belongs > 4 mM (inactive).
Take `Cc1cc(C)cc(NS(=O)(=O)N2CCOCC2)c1`: the Kd result is “inactive”.
As for `O=C(O)c1ccc2ccccc2n1`, the Kd was > 4 mM (inactive).
Under `O=C1CC(C(=O)O)c2ccccc21` (configuration not stated) stands > 4 mM (inactive); under `Cc1ccc2c(c1)CCCN2C(=O)c1c(C)noc1C`, > 4 mM (inactive).
For the molecule `Cc1onc(-c2ccccc2)c1C(=O)O`, the Kd is > 4 mM (inactive).
On to `Clc1ccc(-c2nnc3ccccn23)cc1`, for which the Kd is > 4 mM (inactive).
Under `C=C[C@@]1(C)CC(=O)[C@@]2(O)[C@](C)(O1)[C@@H](OC(C)=O)[C@@H](O)C1C(C)(C)CC[C@H](O)[C@@]12C` (some centres not stated) stands > 4 mM (inactive).
Under `Cc1cc(SCC(=O)Nc2nccs2)nc(=O)[nH]1` stands > 4 mM (inactive); under `Cc1cc(NC(=O)c2ccc3c(c2)OCO3)no1`, > 4 mM (inactive).
To `CCCSc1nnc2[nH]c(=O)cc(N)n12` belongs > 4 mM (inactive); to `C#CCCCCCCCCCCCC(=O)CC(O)COC(C)=O` (configuration not stated), > 4 mM (inactive); to `O=C(NCc1ccncc1)c1cccc(F)c1`, “inactive”.
As for `Cc1cc(C(=O)N2CCCCCC2)cs1`, the Kd was > 4 mM (inactive).
Consider `COc1cc(C)c(S(=O)(=O)N2CCN(C)CC2)cc1C`, for which the Kd was > 4 mM (inactive).
Under `Nc1cccc(OCC(=O)N2CCOCC2)c1` stands > 4 mM (inactive); under `CC(C1OC(C)(C)C(O)C1O)[C@@H]1CC[C@]2(C)C3=CCC4C(C)(C)C(=O)CC[C@]4(C)C3CC[C@@]12C` (some centres not stated), > 4 mM (inactive); under `Fc1ccc(-c2n[nH]c(=S)n2CC2CCCO2)cc1` (configuration not stated), > 4 mM (inactive).
Turning to `OCCNC(=S)Nc1ccccc1`, the Kd is > 4 mM (inactive).
To `Clc1ccc(SCCn2cncn2)cc1` belongs > 4 mM (inactive).
To `CCc1ccccc1OCC(=O)N1CCOCC1` belongs > 4 mM (inactive).
To `O=C(O)CC1Sc2ccccc2NC1=O` (configuration not stated) belongs > 4 mM (inactive); to `Cc1ccc(C(=O)N2CCOCC2)cc1Cl`, > 4 mM (inactive).
On to `NC(=NCCC[C@H](N)C(=O)O)NC(CCC(=O)O)C(=O)O` (some centres not stated), for which the Kd is > 4 mM (inactive).
To `O=C1COc2ccccc2C(=O)N1` belongs > 4 mM (inactive).
To `O=C(O)/C=C/c1ccc(O)c(O)c1` belongs > 4 mM (inactive).
Under `NC[C@H]1O[C@H](O[C@H]2[C@H](O)[C@@H](O[C@H]3O[C@H](CO)[C@@H](O)[C@H](N)[C@H]3O)[C@H](N)C[C@@H]2N)[C@H](N)[C@@H](O)[C@@H]1O` stands > 4 mM (inactive); under `O=C1CC(c2c[nH]c3ccccc23)C(=O)N1` (configuration not stated), > 4 mM (inactive); under `O=C(c1ccncc1)N1CCN(C(=O)c2ccncc2)CC1`, > 4 mM (inactive).
For the molecule `c1ccc(-c2nnc(CNCc3ccco3)o2)cc1`, the Kd is > 4 mM (inactive).
To `CCCCC(Nc1n[nH]c(=O)[nH]c1=O)C(=O)O` (configuration not stated) belongs > 4 mM (inactive); to `CC(=O)OC1CCC2(C)C(=CC=C3C2CCC2(C)C3CCC2C(C)/C=C/C(C)C(C)C)C1(C)C` (configuration not stated), > 4 mM (inactive).
To `CS(=O)(=O)c1ccccc1C(=O)Nc1nccs1` belongs > 4 mM (inactive); to `COCc1nc(-c2cc(Br)ccc2OC)no1`, > 4 mM (inactive).
Under `COc1ccc2c(c1)=C(c1sc(N)nc1O)C(=O)N=2` stands > 4 mM (inactive); under `O=C(O[C@@H]1Cc2c(O)cc(O)cc2O[C@@H]1c1cc(O)c(O)c(O)c1-c1c([C@H]2Oc3cc(O)cc(O)c3C[C@H]2O)cc(O)c(O)c1O)c1cc(O)c(O)c(O)c1`, > 4 mM (inactive); under `COCCn1c(C)cc(O)cc1=O`, > 4 mM (inactive).
For `Cc1ccc(C(C)C)c(OCCNC(=O)c2ccccc2OCC(=O)N2CCOCC2)c1`, the Kd entry was “inactive”.
In the case of `CN(C)N1C(=O)C2C3C=CC(O3)C2C1=O` (configuration not stated), the Kd was > 4 mM (inactive).
To `CCOc1ccc(C(=O)c2ccc(O)c(O)c2O)cc1` belongs > 4 mM (inactive).

These data come from PubChem BioAssay AID608 (Sanford-Burnham Center for Chemical Genomics, 2007).
